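How tested: cells in 96-well plates exposed to compound for 48 hours at five concentrations. Here, GI50 denotes the concentration required for 50% inhibition of growth. TGI marks complete inhibition of growth.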
Experiments:
Experiment in all cases: NCI-60 cell line screen, 48 h
[1] = tested on: CAKI-1 renal
[2] = tested on: M14 melanoma
[3] = tested on: UACC-257 melanoma
[4] = tested on: OVCAR-3 ovarian
[5] = tested on: COLO 205 colon
[6] = tested on: SW-620 colon
[7] = tested on: HOP-92 NSCLC
[8] = tested on: TK-10 renal
[9] = tested on: PC-3 prostate
[10] = tested on: HS 578T breast

| SMILES | TGI [1] | TGI [2] | TGI [3] | TGI [4] | TGI [5] | TGI [6] | TGI [7] | TGI [8] | TGI [9] | GI50 [1] | GI50 [10] | TGI [10] | GI50 [2] | GI50 [3] | GI50 [4] | GI50 [9] | GI50 [5] | GI50 [6] | GI50 [8] | GI50 [7] |
| --- | --- | --- | --- | --- | --- | --- | --- | --- | --- | --- | --- | --- | --- | --- | --- | --- | --- | --- | --- | --- |
| O=C(Cc1c(C(=O)Nc2ccccc2)sc(C(=O)Nc2ccccc2)c1CC(=O)Nc1ccccc1)Nc1ccccc1 | > 100 µM | > 100 µM | > 100 µM | > 100 µM | > 100 µM | > 100 µM | > 100 µM | > 100 µM |  |  |  |  |  |  |  |  |  |  |  |  |
| COC1OC(CO)C(O)C(NC(=O)N(C)N=O)C1O (configuration not stated) | > 100 µM | > 100 µM |  | > 100 µM | > 100 µM | > 100 µM | > 100 µM | > 100 µM |  |  |  |  |  |  |  |  |  |  |  |  |
| Cc1ccc(NC(=O)CC2SC(=Nc3cccc(Cl)c3C)NC2=O)cc1 (configuration not stated) | > 100 µM | > 100 µM | > 100 µM | > 100 µM | > 100 µM | > 100 µM |  | > 100 µM |  |  |  |  |  |  |  |  |  |  |  |  |
| Cc1cc2c(=O)cc(-c3ccc(Cl)cc3Cl)oc2c(C(=O)O)c1C | > 100 µM | > 100 µM | > 100 µM | > 100 µM | > 100 µM | > 100 µM |  | > 100 µM |  |  |  |  |  |  |  |  |  |  |  |  |
| COC(=O)c1oc([N+](=O)[O-])c(-c2ccccc2)c1-c1ccccc1 | > 100 µM | > 100 µM | > 100 µM | > 100 µM | > 100 µM | > 100 µM | > 100 µM | > 100 µM |  |  |  |  |  |  |  |  |  |  |  |  |
| Cc1cc2c(cc1C)[n+](=O)c(C(=O)CC(=O)C(=O)Nc1ccccc1C)c(C)n2[O-] | > 100 µM | > 100 µM | > 100 µM | > 100 µM | > 100 µM | > 100 µM | > 100 µM | > 100 µM |  |  |  |  |  |  |  |  |  |  |  |  |
| CCOC(=O)c1sc(Nc2cc(Cl)ccc2Cl)nc1C |  |  | > 100 µM | > 100 µM | > 100 µM | > 100 µM | 96.6 µM | > 100 µM |  |  |  |  |  |  |  |  |  |  |  |  |
| C#CCOCCCC(=O)O | > 100 µM | > 100 µM | > 100 µM | > 100 µM | > 100 µM | > 100 µM | > 100 µM | > 100 µM | > 100 µM |  |  |  |  |  |  |  |  |  |  |  |
| CC(=O)OC1C(COC(N)=O)OC(n2c(-c3ccc(C)cc3)cc(-c3ccccc3)c(C#N)c2=O)C(OC(C)=O)C1OC(C)=O (configuration not stated) | > 100 µM | > 100 µM | > 100 µM | > 100 µM | > 100 µM | > 100 µM | > 100 µM | > 100 µM |  |  |  |  |  |  |  |  |  |  |  |  |
| CC(=O)N[C@@H](Cc1ccc(OP(=O)(O)O)cc1)C(=O)N[C@H]1CCC(=O)N2CCC[C@@H](C(=O)NCc3cccc4ccccc34)N2C1=O | > 25 µM | > 25 µM | > 25 µM | > 25 µM | > 25 µM | > 25 µM |  | > 25 µM | > 25 µM | > 25 µM | > 25 µM | > 25 µM | > 25 µM | > 25 µM | > 25 µM | > 25 µM | > 25 µM | > 25 µM | > 25 µM |  |
| CC[C@H]1[C@@H](C)C=C[C@@H](C)N1S(=O)(=O)c1ccc(C)cc1 | > 100 µM | > 100 µM | > 100 µM | > 100 µM | > 100 µM | > 100 µM |  |  |  |  |  |  |  |  |  |  |  |  |  |  |
| O=C1C2=C(c3ccccc31)C(c1ccccc1Cl)NC(=S)N2 (configuration not stated) | > 100 µM | > 100 µM | > 100 µM | > 100 µM | > 100 µM | > 100 µM | 68.4 µM | > 100 µM |  |  |  |  |  |  |  |  |  |  |  |  |
| CN(CCNc1ccc(C(=N)N)cc1)c1ccc(C(=N)N)cc1 | 37.3 µM | > 100 µM | > 100 µM | > 100 µM | 41.1 µM | > 100 µM |  | > 100 µM | > 100 µM | 2.7 µM | 16.1 µM | 51.9 µM | 57 µM | 35.1 µM | 37.3 µM | 53 µM | 17 µM | > 100 µM | 53.4 µM |  |
| CCOC(=O)c1c2c(n(Cc3ccccc3)c1C)-c1nc[nH]c1C(=O)C2=O | 38.5 µM | 37.9 µM | 30 µM | 26.8 µM | 35.1 µM | 41.8 µM | 18.9 µM | 31.3 µM |  | 18.5 µM | 29.3 µM | 88.1 µM | 21.4 µM | 16.4 µM | 13.9 µM |  | 20.2 µM | 20.5 µM | 16.2 µM | 0.0891 µM |
| O=C(O)COc1ccc2c3c1C(=O)CCC3CO2 (configuration not stated) | > 100 µM | > 100 µM | > 100 µM | > 100 µM | > 100 µM | > 100 µM | > 100 µM | > 100 µM |  |  |  |  |  |  |  |  |  |  |  |  |
| OCC(O)COc1ccc(F)cc1 (configuration not stated) | > 100 µM | > 100 µM | > 100 µM | > 100 µM | > 100 µM | > 100 µM | > 100 µM | > 100 µM |  |  |  |  |  |  |  |  |  |  |  |  |
| c1ccc2c(CNCCCN3CCN(CCCNCc4cccc5ccccc45)CC3)cccc2c1 | 4.02 µM | 2.42 µM | 3.34 µM | 9.53 µM | 3.85 µM | 3.25 µM | 4.65 µM | 2.95 µM |  |  |  |  |  |  |  |  |  |  |  |  |
| CC1=CC=C2C(C)(C)CC[C@@H]3OC(=O)[C@H]1[C@]23C | > 100 µM | > 100 µM | > 100 µM | > 100 µM | > 100 µM | > 100 µM | > 100 µM | > 100 µM |  |  |  |  |  |  |  |  |  |  |  |  |
| C=CCC1=C2CCCCC2CCC1=O (configuration not stated) | > 100 µM | > 100 µM | > 100 µM | > 100 µM | > 100 µM | > 100 µM |  | > 100 µM |  |  |  |  |  |  |  |  |  |  |  |  |
| CCCCN(CCCC)C(=O)C(=O)C(C(=O)C(=O)OC)c1nc2ccccc2o1 (configuration not stated) | > 100 µM | > 100 µM | > 100 µM | > 100 µM | > 100 µM | > 100 µM | > 100 µM | > 100 µM |  |  |  |  |  |  |  |  |  |  |  |  |
| COc1cc(/C=C(\C)c2ccc3c(c2)OCO3)cc(OC)c1OC |  | > 100 µM | > 100 µM | > 100 µM | 39.7 µM | 95 µM |  | > 100 µM |  |  |  |  |  |  |  |  |  |  |  |  |
| Cc1cc2c(=O)cc(-c3ccc(C(=O)O)cc3)oc2c(C(N)=O)c1C |  | > 100 µM | > 100 µM | > 100 µM | > 100 µM | > 100 µM | > 100 µM | > 100 µM |  |  |  |  |  |  |  |  |  |  |  |  |
| CN1C[C@@H]2CC(=O)CC[C@@H]2C[C@H]1C#N | > 100 µM | > 100 µM | > 100 µM | > 100 µM |  | > 100 µM | > 100 µM |  |  |  |  |  |  |  |  |  |  |  |  |  |
